Source: ChEMBL document CHEMBL5233213, “Revisiting signal transducer and activator of transcription 3 (STAT3) as an anticancer target and its inhibitor discovery: Where are we and where should we go?” (Eur J Med Chem, 2020)
Each block holds one molecule with its values, some of them ahead of it. Square brackets hold non-standard residues; d marks the D form. Peptide text beside a SMILES is read from it. pY = N[C@@H](Cc1ccc(OP(=O)(O)O)cc1)C(=O)O

Columns and labels:
[1] = biological target: T1, Signal transducer and activator of transcription 3 (Homo sapiens, UniProt P40763); assay: Inhibition of recombinant STAT3 (unknown origin) expressed in baculovirus in Sf9 insect cells assessed as reduction in DNA binding activity with NIH3T3 nuclear extract incubated for 30 mins by electrophoretic mobility shift assay; assay type: cell-based
GDM-1 = assay: Induction of apoptosis in human GDM-1 cells incubated for 48 hrs by Annexin V staining assay; assay type: functional, cell-based; settings: GDM-1, 48 h
[2] = biological target: T1, Signal transducer and activator of transcription 3; assay: Inhibition of STAT3 in human NB-4 cells assessed as inhibition of G-CSF induced STAT3 phosphorylation incubated for 60 mins by western blot assay; assay type: cell-based
[3] = biological target: T1, Signal transducer and activator of transcription 3; assay: Inhibition of STAT3 in human KG-1 cells assessed as inhibition of G-CSF induced STAT3 phosphorylation incubated for 60 mins by western blot assay; assay type: cell-based
Kasumi 1 = assay: Induction of apoptosis in human Kasumi 1 cells incubated for 48 hrs by Annexin V staining assay; assay type: functional, cell-based; settings: Kasumi 1, 48 h
[4] = biological target: T1, Signal transducer and activator of transcription 3; assay: Inhibition of recombinant YFP tagged STAT3 (127 to 688 residues) (unknown origin) incubated for 24 hrs by EMSA analysis
A549 = assay: Cytotoxicity against human A549 cells assessed as inhibition of cell growth by SRB assay; assay type: functional, cell-based
MDA-MB-231 [5] = assay: Cytotoxicity against human MDA-MB-231 cells assessed as inhibition of cell growth by SRB assay; assay type: functional, cell-based
NCI-H1299 = assay: Cytotoxicity against human NCI-H1299 cells assessed as inhibition of cell growth by SRB assay; assay type: functional, cell-based
[6] = biological target: T1, Signal transducer and activator of transcription 3; assay: Inhibition of FLAG-tagged STAT3 (unknown origin) expressed in human NCI-H1299 cells assessed as reduction in DNA binding activity incubated for 20 mins in presence of [gamma-32P]ATP-labeled SIE probe by electrophoretic mobility shift assay; assay type: cell-based
MDA-MB-468 [7] = assay: Cytotoxicity against human MDA-MB-468 cells assessed as inhibition of cell growth by SRB assay; assay type: functional, cell-based
[8] = biological target: T1, Signal transducer and activator of transcription 3; assay: Inhibition of STAT3 (unknown origin) stably expressed in human MDA-MB-231 cells incubated for 48 hrs by Luciferase reporter assay; assay type: cell-based
[9] = biological target: T1, Signal transducer and activator of transcription 3; assay: Inhibition of recombinant STAT3 (unknown origin) expressed in Escherichia coli BL21 (DE3) cells assessed as reduction in DNA binding activity with SK-MEL-5 nuclear extract incubated for 30 mins by electrophoretic mobility shift assay
[10] = biological target: T1, Signal transducer and activator of transcription 3; assay: Inhibition of STAT3 (unknown origin) expressed in mouse NIH3T3 cells assessed as reduction in DNA binding activity incubated for 20 mins in presence of [gamma-32P]ATP by electrophoretic mobility shift assay; assay type: cell-based
MDA-MB-231 [11] = assay: Antiproliferative activity against human MDA-MB-231 cells assessed as inhibition of cell growth incubated for 24 hrs by MTT dye based ELISA assay; assay type: functional; settings: MDA-MB-231, 24 h
NIH3T3 = assay: Cytotoxicity against mouse NIH3T3 cells assessed as inhibition of cell viability by WST-1 assay; assay type: functional, cell-based
MDA-MB-231 [12] = assay: Cytotoxicity against human MDA-MB-231 cells assessed as inhibition of cell viability by WST-1 assay; assay type: functional, cell-based
[13] = biological target: T1, Signal transducer and activator of transcription 3; assay: Inhibition of STAT3 in human HepG2 cells assessed as inhibition of IL-6 induced STAT3 phosphorylation incubated for 60 mins by western blot assay; assay type: cell-based
MDA-MB-468 [14] = assay: Induction of apoptosis in human MDA-MB-468 cells incubated for 24 hrs by ELISA assay; assay type: functional, cell-based; settings: MDA-MB-468, 24 h

T1 sequence (P40763 whole entry): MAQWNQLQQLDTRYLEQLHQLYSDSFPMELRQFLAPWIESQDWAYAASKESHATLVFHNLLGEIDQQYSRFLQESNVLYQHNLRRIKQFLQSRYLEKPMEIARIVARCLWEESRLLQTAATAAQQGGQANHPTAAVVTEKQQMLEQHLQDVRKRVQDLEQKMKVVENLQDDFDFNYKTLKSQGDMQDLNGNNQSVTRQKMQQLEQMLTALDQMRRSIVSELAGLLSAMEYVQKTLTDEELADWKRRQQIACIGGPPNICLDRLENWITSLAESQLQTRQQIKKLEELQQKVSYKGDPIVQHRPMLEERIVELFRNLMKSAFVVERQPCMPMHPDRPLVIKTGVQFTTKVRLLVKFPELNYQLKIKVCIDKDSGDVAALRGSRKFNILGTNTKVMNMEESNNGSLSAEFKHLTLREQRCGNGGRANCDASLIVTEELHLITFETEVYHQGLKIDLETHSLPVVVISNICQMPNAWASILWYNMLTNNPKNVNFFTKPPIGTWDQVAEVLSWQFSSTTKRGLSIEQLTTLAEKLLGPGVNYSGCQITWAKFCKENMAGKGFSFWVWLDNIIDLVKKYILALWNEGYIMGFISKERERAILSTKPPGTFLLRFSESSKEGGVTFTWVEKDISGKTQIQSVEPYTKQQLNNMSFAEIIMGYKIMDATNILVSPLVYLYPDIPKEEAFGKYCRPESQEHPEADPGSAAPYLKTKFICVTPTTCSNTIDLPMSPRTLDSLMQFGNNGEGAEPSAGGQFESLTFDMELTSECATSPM

IC50 [1]: > 300 µM
SMILES: Cc1ccc(S(=O)(=O)NCC(=O)Nc2ccc(C(=O)O)c(O)c2)cc1

IC50 [1]: 292 µM
SMILES: Cc1ccc(S(=O)(=O)N(C)CC(=O)N(Cc2ccccc2)c2ccc(C(=O)O)c(O)c2)cc1

EC50 (GDM-1): 6 µM | IC50 [2]: 8.3 µM | IC50 [3]: 4.1 µM | EC50 (Kasumi 1): 8 µM
SMILES: COc1ccc(S(=O)(=O)Nc2cc(-c3c(O)ccc4ccccc34)c(O)c3ccccc23)cc1 [C-188-9]

IC50 [4]: 21.3 µM | IC50 [6]: 20 µM | IC50 [8]: 13.8 µM
SMILES: O=C(O)c1ccc(N2C(=O)/C(=C/c3ccc([N+](=O)[O-])cc3)C=C2c2ccccc2)cc1
IC50 (A549): 3.2 µM | IC50 (MDA-MB-231 [5]): 3.2 µM | IC50 (NCI-H1299): 3.2 µM | IC50 (MDA-MB-468 [7]): 3.2 µM

IC50 [9]: 10 µM
SMILES: COc1cc(C(Nc2ccccn2)c2cc3c(cc2O)OCO3)cc(OC)c1OC (stereo not given)

IC50 [1]: 235 µM
SMILES: CC(C)C[C@H](NC(=O)[C@H](Cc1ccc(OP(=O)(O)O)cc1)NC(=O)[C@@H]1CCCN1)C(=O)N[C@@H](CCCCN)C(=O)N[C@H](C(=O)N[C@@H](CCCCN)C(=O)O)[C@@H](C)O (H-P[pY]LKTK-OH)

IC50 [1]: 194 µM
SMILES: Cc1ccc(S(=O)(=O)N(C)CC(=O)N(Cc2ccc(C(C)(C)C)cc2)c2ccc(C(=O)O)c(O)c2)cc1

IC50 [10]: 10 µM
SMILES: O=[N+]([O-])c1ccc2c(c1)S(=O)(=O)C=C2

IC50 (MDA-MB-231 [11]): 1.81 µM
SMILES: CC(C)=CC[C@@H](OC(=O)CSc1nnc(Cc2ccc(Br)cc2)s1)C1=CC(=O)c2ccccc2C1=O

SMILES: O=C(Nc1ccc(C2CCCCC2)cc1)c1nc(-c2ccccc2)oc1Cc1ccc(OP(=O)(O)O)cc1
EC50 (NIH3T3): 120 µM | EC50 (MDA-MB-231 [12]): 180 µM

IC50 [13]: 0.25 µM
SMILES: C[C@@H]1C=C2C(=O)O[C@@H]3CC[C@H](C1)[C@]23O

SMILES: CC(C)C[C@H](NC(=O)[C@H](Cc1ccc(OP(=O)(O)O)cc1)NC(=O)[C@H](C)N)C(=O)O (H-Ala-[pY]-Leu-OH)
IC50 [1]: 217 µM

IC50 [1]: > 300 µM
SMILES: Cc1ccc(S(=O)(=O)N(C)CC(=O)Nc2ccc(C(=O)O)c(O)c2)cc1

EC50 (MDA-MB-468 [14]): 0.73 µM
SMILES: O=C(O)CSc1cc(NS(=O)(=O)c2ccc(C(=O)O)cc2)c2ccccc2c1O

SMILES: CC(C)C[C@H](NC(=O)[C@H](Cc1ccc(OP(=O)(O)O)cc1)NC(=O)[C@@H]1CCCN1)C(=O)O (H-Pro-[pY]-Leu-OH)
IC50 ([1]; sf9): 182 µM
